What was measured:
PLK1 = PLK1 (Homo sapiens, UniProt P53350); experiment: in vitro enzymatic inhibitory activity, PLK1 kinase, 10-dose IC50 mode; format: biochemical; conditions: 10 μM ATP
Procedure: (§1) Compounds were tested against two kinases.
(§2) Data includes raw data, % Enzyme activity (relative to DMSO controls) and curve fits.

WEE1 [1] = target: T1, WEE1 (Homo sapiens, UniProt P30291); experiment: in vitro enzymatic inhibitory activity, WEE1 kinase, 10-dose IC50 mode; format: biochemical; conditions: 10 μM ATP
T1 construct: Drug treated cells are fixed and stained with propidium iodide (PI); endogenous in cells
T1 sequence (P30291 whole entry): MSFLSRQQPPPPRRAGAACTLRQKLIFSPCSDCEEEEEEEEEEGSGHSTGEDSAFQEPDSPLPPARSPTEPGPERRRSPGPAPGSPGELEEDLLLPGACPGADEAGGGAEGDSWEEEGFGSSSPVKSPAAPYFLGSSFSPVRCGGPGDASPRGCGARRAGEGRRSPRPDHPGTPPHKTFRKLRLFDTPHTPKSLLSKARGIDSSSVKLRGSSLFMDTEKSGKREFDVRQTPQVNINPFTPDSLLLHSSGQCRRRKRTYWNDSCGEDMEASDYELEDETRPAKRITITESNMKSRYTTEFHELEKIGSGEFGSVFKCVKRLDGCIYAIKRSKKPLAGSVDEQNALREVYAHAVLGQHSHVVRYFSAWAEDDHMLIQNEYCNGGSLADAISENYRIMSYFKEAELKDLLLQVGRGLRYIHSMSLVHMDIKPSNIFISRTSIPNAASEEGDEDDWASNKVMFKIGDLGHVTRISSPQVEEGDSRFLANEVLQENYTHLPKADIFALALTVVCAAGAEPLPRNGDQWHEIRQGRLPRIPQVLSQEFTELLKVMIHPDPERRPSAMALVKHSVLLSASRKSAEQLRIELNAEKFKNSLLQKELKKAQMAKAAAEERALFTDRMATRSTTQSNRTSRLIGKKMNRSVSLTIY
Procedure: as §1, §2

WEE1 [2] = target: T1, WEE1; experiment: Guava flow cytometry cell cycle assay (DNA content per cell, propidium iodide); format: cell-based
Source text: In this example, compounds described herein were subject to an assay that detects changes the phases of the cell cycle upon drug treatment, permitting the identification of drugs that affect cell proliferation in a specific manner. For example, problematic DNA replication causes the percentage of cells in S phase to increase. Thus, quantification of cells in S phase permits identification of drugs that cause defects in DNA replication. Similarly, drugs that selectively defects in progression through G2/M can also be identified. Moreover, synergy between assayed drugs and known cell cycle regulators can be determined, as exemplified by the effect of ATR inhibition when combined with agents that slow DNA replication, which causes replication fork collapse into DSBs and complete loss of DNA synthesis. Two novel drugs can also be combined to quantify synergistic effects on specific cell cycle phases.
The assay operates by the quantification of DNA content per cell by flow cytometry. Cells are assessed for effects on cell cycle using a Guava EasyCyte™ flow cytometer (Austin, TX). Drug treated cells are fixed and stained with propidium iodide (PI) and resuspended in phosphate-buffered saline containing the PI staining buffer. During flow cytometry, PI is excited at 528 nm and is detected in a 610/20 bandpass. Readout of the […] is optical density of DNA-staining dye. The assay generates a histogram showing count of cells by amount of DNA, which is an indicator of place in the cell cycle. This rapid assay detects relative changes in the cell cycle upon drug treatment upon comparison vehicle-treated and single-agent controls for detection of combinatorial interactions. See, Table 4.

PLK1, sequence (P53350 whole entry, species assumed): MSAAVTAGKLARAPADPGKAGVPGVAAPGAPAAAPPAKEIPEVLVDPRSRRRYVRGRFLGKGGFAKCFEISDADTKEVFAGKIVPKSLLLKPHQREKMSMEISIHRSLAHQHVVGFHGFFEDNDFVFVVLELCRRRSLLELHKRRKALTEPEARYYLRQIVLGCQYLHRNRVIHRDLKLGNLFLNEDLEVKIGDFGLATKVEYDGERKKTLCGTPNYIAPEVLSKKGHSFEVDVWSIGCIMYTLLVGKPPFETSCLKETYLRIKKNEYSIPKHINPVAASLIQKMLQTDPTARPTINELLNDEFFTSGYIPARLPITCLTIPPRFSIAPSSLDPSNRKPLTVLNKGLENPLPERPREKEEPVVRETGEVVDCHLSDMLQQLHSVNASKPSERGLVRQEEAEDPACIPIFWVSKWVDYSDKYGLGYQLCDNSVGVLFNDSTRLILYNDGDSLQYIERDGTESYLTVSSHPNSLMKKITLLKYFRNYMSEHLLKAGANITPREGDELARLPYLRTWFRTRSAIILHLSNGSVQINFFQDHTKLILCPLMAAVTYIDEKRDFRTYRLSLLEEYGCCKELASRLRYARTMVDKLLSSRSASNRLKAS

Row | IC50 (PLK1) [nM] | IC50 (WEE1 [1]) [nM] | WEE1 Guava MEC Guava MEC (WEE1 [2]; single agent, unit assumed) [µM] | WEE1 Guava MEC with 20 nM GEM (WEE1 [2]; with 20 nM GEM, in µM (unit assumed)) | SMILES
1 | 159 |  |  |  | C=CCn1c(=O)c2cnc(Nc3ccc(N4CCN(C)CC4)cc3)nc2n1-c1cccc(C(C)(C)O)n1 [AZD1775]
2 |  | 27 | 0.313 | 0.156 | O=c1c2cnc(Nc3ccc4c(c3)CNCC4)nc2c(Br)cn1-c1c(Cl)cccc1Cl [Compound P10, 8-bromo-6-(2,6-dichlorophenyl)-2-(1,2,3,4-tetrahydroisoquinolin-7-ylamino)pyrido[4,3-d]pyrimidin-5-one]

Reference: patent US20240254123A1, “PYRIDOPYRIMIDINE DERIVATIVES USEFUL AS WEE1 KINASE INHIBITORS” (APREA THERAPEUTICS, INC., priority 2021, published 2024)
